Molecular target: T1, human EDG-2 (Homo sapiens, UniProt Q92633)
T1 construct: cDNA of the cloned human EDG-2 was introduced into pEFneo, which is an animal expression vector; expressed in transfected cells; host or cells: HepG2
Assay: Inhibitory activity on LPA-induced elevation of intracellular Ca2+ level
Format: cell-based
Conditions: 50% inhibition of elevation of intracellular Ca2+ level by LPA, human EDG-2/HepG2 cells, fura-2
Source text: The human EDG-2 expression plasmid was introduced into HepG2 cells by electroporation. After the introduction, culturing was continued while exchanging selective media every 3 to 4 days, thereby obtaining an expressed colony. Regarding these cells, Ca-influx and cell-proliferation by LPA, level of [^3H] LPA binding and the like were inspected to select a cell line which highly expresses human EDG-2 (human EDG-2/HepG2).
Human EDG-2/HepG2 cells were washed and then suspended in 0.1% BSA (bovine serum albumin)-containing HEPES buffer. A fluorescent indicator, fura-2/AM (Wako Pure Chemical Industries, Ltd.), was added, and the mixture was shaken at room temperature for 45 minutes so that the indicator is included in the cell. Cells were washed again and then suspended in 0.1% BSA-containing HEPES buffer, and intracellular Ca^2+ level was assayed using FDSS2000 (Hamamatsu Photonics). […] Each test compound was added to the cell suspension followed by the addition of LPA, thereby examining the inhibitory activity of the test compound on the function of LPA for elevating the intracellular Ca level. […] The lower the IC50 value, the higher the antagonistic activity on the LPA receptor.

T1 sequence (Q92633 whole entry): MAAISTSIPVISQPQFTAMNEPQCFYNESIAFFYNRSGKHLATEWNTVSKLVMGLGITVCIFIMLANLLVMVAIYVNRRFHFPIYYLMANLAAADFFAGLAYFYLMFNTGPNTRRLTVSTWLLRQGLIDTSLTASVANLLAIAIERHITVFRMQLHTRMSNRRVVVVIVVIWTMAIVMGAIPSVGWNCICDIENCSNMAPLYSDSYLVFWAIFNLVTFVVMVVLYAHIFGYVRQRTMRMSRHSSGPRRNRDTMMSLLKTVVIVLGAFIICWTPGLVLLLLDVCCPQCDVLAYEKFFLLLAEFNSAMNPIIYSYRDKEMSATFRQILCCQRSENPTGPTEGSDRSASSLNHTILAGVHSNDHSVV

Row | SMILES | IC50 [µM]
1 | Cc1onc(-c2ccccc2)c1NC(=O)O[C@H](C)c1ccccc1Br [Compound 22, (1R)-1-(2-Bromophenyl)ethyl N-(5-methyl-3-phenyl-4-isoxazolyl)carbamate] | 3 to 10
2 | Cc1onc(-c2ccccc2)c1NC(=O)OC(C)c1ccccc1Br (centres unmarked) [Compound 23, 1-(2-Bromophenyl)ethyl N-(5-methyl-3-phenyl-4-isoxazolyl)carbamate] | 10
3 | CC(OC(=O)Nc1c(Cl)nsc1-c1ccccc1Cl)c1ccccc1 (centres unmarked) [Compound 25, 1-Phenylethyl N-[3-chloro-5-(2-chlorophenyl)-4-isothiazolyl]carbamate] | 30 to 100
4 | Cc1cccc(-c2onc(C)c2NC(=O)OC(C)c2ccccc2)c1 (centres unmarked) [Compound 27, 1-Phenylethyl N-[3-methyl-5-(3-methylphenyl)-4-isoxazolyl]carbamate] | 30
5 | Cc1cccc(-c2onc(C)c2NC(=O)OC(C)c2ccccc2Cl)c1 (centres unmarked) [Compound 28, 1-(2-Chlorophenyl)ethyl N-[3-methyl-5-(3-methylphenyl)-4-isoxazolyl]carbamate] | 10 to 30
6 | Cc1noc(-c2cccc(F)c2)c1NC(=O)OC(C)c1ccccc1 (centres unmarked) [Compound 29, 1-Phenylethyl N-[5-(3-fluorophenyl)-3-methyl-4-isoxazolyl]carbamate] | 10
7 | Cc1noc(-c2cccc(F)c2)c1NC(=O)OC(C)c1ccccc1Cl (centres unmarked) [Compound 30, 1-(2-Chlorophenyl)ethyl N-[5-(3-fluorophenyl)-3-methyl-4-isoxazolyl]carbamate] | 3 to 10
8 | Cc1noc(-c2ccco2)c1NC(=O)OC(C)c1ccccc1 (centres unmarked) [Compound 31, 1-Phenylethyl N-[5-(2-furyl)-3-methyl-4-isoxazolyl]carbamate] | 10
9 | Cc1noc(-c2cccc(F)c2)c1NC(=O)O[C@H](C)c1ccccc1Br [Compound 33, (1R)-1-(2-Bromophenyl)ethyl N-[5-(3-fluorophenyl)-3-methyl-4-isoxazolyl]carbamate] | 3 to 10
10 | Cc1noc(-c2cccc(F)c2)c1NC(=O)OC(C)c1ccccc1F (centres unmarked) [Compound 34, 1-(2-Fluorophenyl)ethyl N-[5-(3-fluorophenyl)-3-methyl-4-isoxazolyl]carbamate] | 10
11 | Cc1noc(-c2ccc(OC(F)(F)F)cc2)c1NC(=O)OC(C)c1ccccc1 (centres unmarked) [Compound 35, 1-Phenylethyl N-[5-[4-(trifluoromethoxy)phenyl]-3-methyl-4-isoxazolyl]carbamate] | 3 to 10
12 | Cc1noc(-c2ccc(OC(F)(F)F)cc2)c1NC(=O)OC(C)c1ccccc1Cl (centres unmarked) [Compound 36, 1-(2-Chlorophenyl)ethyl N-[5-[4-(trifluoromethoxy)phenyl]-3-methyl-4-isoxazolyl]carbamate] | 3 to 10
13 | Cc1ccc(-c2onc(C)c2NC(=O)OC(C)c2ccccc2)cc1 (centres unmarked) [Compound 37, 1-Phenylethyl N-[3-methyl-5-(4-methylphenyl)-4-isoxazolyl]carbamate] | 30
14 | Cc1ccc(-c2onc(C)c2NC(=O)OC(C)c2ccccc2Cl)cc1 (centres unmarked) [Compound 38, 1-(2-Chlorophenyl)ethyl N-[3-methyl-5-(4-methylphenyl)-4-isoxazolyl]carbamate] | 10
15 | Cc1noc(-c2cccc(Cl)c2)c1NC(=O)OC(C)c1ccccc1Cl (centres unmarked) [Compound 39, 1-(2-Chlorophenyl)ethyl N-[5-(3-chlorophenyl)-3-methyl-4-isoxazolyl]carbamate] | 10
16 | Cc1noc(-c2ccc(F)cc2)c1NC(=O)OC(C)c1ccccc1 (centres unmarked) [Compound 40, 1-Phenylethyl N-[5-(4-fluorophenyl)-3-methyl-4-isoxazolyl]carbamate] | 10

Row | SMILES | IC50 [µM]
17 | Cc1noc(-c2ccc(F)cc2)c1NC(=O)OC(C)c1ccccc1Cl (centres unmarked) [Compound 41, 1-(2-Chlorophenyl)ethyl N-[5-(4-fluorophenyl)-3-methyl-4-isoxazolyl]carbamate] | 3 to 10
18 | Cc1noc(-c2ccccc2F)c1NC(=O)OC(C)c1ccccc1 (centres unmarked) [Compound 42, 1-Phenylethyl N-[5-(2-fluorophenyl)-3-methyl-4-isoxazolyl]carbamate] | 10
19 | Cc1noc(-c2ccccc2F)c1NC(=O)OC(C)c1ccccc1Cl (centres unmarked) [Compound 43, 1-(2-Chlorophenyl)ethyl N-[5-(2-fluorophenyl)-3-methyl-4-isoxazolyl]carbamate] | 3 to 10
20 | Cc1noc(-c2ccc(OC(F)(F)F)cc2)c1NC(=O)O[C@H](C)c1ccccc1Br [Compound 44, (1R)-1-(2-Bromophenyl)ethyl N-[3-methyl-5-[4-(trifluoromethoxy)phenyl]-4-isoxazolyl]carbamate] | 3
21 | Cc1noc(-c2ccc(OC(F)(F)F)cc2)c1NC(=O)OC(C)c1ccccc1F (centres unmarked) [Compound 45, 1-(2-Fluorophenyl)ethyl N-[3-methyl-5-[4-(trifluoromethoxy)phenyl]-4-isoxazolyl]carbamate] | 3
22 | Cc1noc(-c2ccc(C#N)cc2)c1NC(=O)OC(C)c1ccccc1 (centres unmarked) [Compound 46, 1-Phenylethyl N-[5-(4-cyanophenyl)-3-methyl-4-isoxazolyl]carbamate] | 3 to 10
23 | Cc1ccc(-c2onc(C)c2NC(=O)O[C@H](C)c2ccccc2Br)cc1 [Compound 48, (1R)-1-(2-Bromophenyl)ethyl N-[3-methyl-5-(4-methylphenyl)-4-isoxazolyl]carbamate] | 3 to 10
24 | Cc1ccc(-c2onc(C)c2NC(=O)OC(C)c2ccccc2F)cc1 (centres unmarked) [Compound 49, 1-(2-Fluorophenyl)ethyl N-[3-methyl-5-(4-methylphenyl)-4-isoxazolyl]carbamate] | 10 to 30
25 | COc1ccc(-c2onc(C)c2NC(=O)OC(C)c2ccccc2Cl)cc1 (centres unmarked) [Compound 50, 1-(2-Chlorophenyl)ethyl N-[5-(4-methoxyphenyl)-3-methyl-4-isoxazolyl]carbamate] | 10 to 30
26 | Cc1noc(-c2ccccc2Br)c1NC(=O)OC(C)c1ccccc1Cl (centres unmarked) [Compound 51, 1-(2-Chlorophenyl)ethyl N-[5-(2-bromophenyl)-3-methyl-4-isoxazolyl]carbamate] | 10 to 30
27 | Cc1noc(-c2ccc3c(c2)OCO3)c1NC(=O)OC(C)c1ccccc1Cl (centres unmarked) [Compound 52, 1-(2-Chlorophenyl)ethyl N-[5-(1,3-benzodioxol-5-yl)-3-methyl-4-isoxazolyl]carbamate] | 30
28 | Cc1noc(-c2cccc(OC(F)(F)F)c2)c1NC(=O)OC(C)c1ccccc1Cl (centres unmarked) [Compound 53, 1-(2-Chlorophenyl)ethyl N-[3-methyl-5-[3-(trifluoromethoxy)phenyl]-4-isoxazolyl]carbamate] | 30
29 | Cc1noc(-c2ccc([N+](=O)[O-])cc2)c1NC(=O)OC(C)c1ccccc1 (centres unmarked) [Compound 54, 1-Phenylethyl N-[3-methyl-5-(4-nitrophenyl)-4-isoxazolyl]carbamate] | 10 to 30
30 | Cc1noc(-c2ccc([N+](=O)[O-])cc2)c1NC(=O)OC(C)c1ccccc1Cl (centres unmarked) [Compound 55, 1-(2-Chlorophenyl)ethyl N-[3-methyl-5-(4-nitrophenyl)-4-isoxazolyl]carbamate] | 3 to 10
31 | Cc1noc(-c2cccs2)c1NC(=O)OC(C)c1ccccc1 (centres unmarked) [Compound 56, 1-Phenylethyl N-[3-methyl-5-(2-thienyl)-4-isoxazolyl]carbamate] | 3 to 10
32 | Cc1noc(-c2cccs2)c1NC(=O)OC(C)c1ccccc1Cl (centres unmarked) [Compound 57, 1-(2-Chlorophenyl)ethyl N-[3-methyl-5-(2-thienyl)-4-isoxazolyl]carbamate] | 3

Source: patent US6964975B2, “Isoxazole and thiazole compounds and use thereof as medicine” (Kirin Beer Kabushiki Kaisha, priority 2000, dated 2005)
